Experiment [1] relates to highly purified tubulin (tubulin heterodimer). The experiment can be described thus: Competitive binding test procedure, [3H]colchicine. Details: species or system bovine. The following applies: competitor 100 μM, [3H]colchicine 50 nM. On the procedure: (§1) Medium is RPMI-1640 with L-glutamine, supplemented with 10% heat-inactivated fetal calf serum, 100 units/mL penicillin, and 100 μg/mL streptomycin (Gibco, Grand Island, N.Y.). Microtubule-associated protein (MAP)-rich tubulin, containing about 70% tubulin and 30% MAPs (#ML113), and highly purified tubulin (>99% pure, #TL238), both from bovine brain, are obtained from Cytoskeleton, Inc., Denver, Colo. PEM buffer (80 mM piperazine-N,N′-bis[2-ethanesulfonic acid], pH 6.9, 1 mM ethylene glycol-bis(β-aminoethyl ether)-N,N,N′,N′-tetraacetic acid, 1 mM magnesium chloride) and guanosine 5′-triphosphate (GTP) are also obtained from Cytoskeleton. [^3H]paclitaxel, specific activity 14.7 Ci/mmol, is purchased from Moravek Biochemicals (Brea, Calif.). [^3H]vinblastine, specific activity 9.60 Ci/mmol and MicroSpin G-50 columns are obtained from Amersham Biosciences (Piscataway, N.J.). […] Other reagents are obtained from Sigma (St. Louis, Mo.).
(§2) The binding of examples of this invention to highly purified tubulin is studied by competitive inhibition methods. […] To study possible competition at the taxane site, on the other hand, polymerized tubulin (microtubules) is used because paclitaxel binds preferentially to microtubules.
(§3) Highly purified tubulin is dissolved in PEM buffer without GTP and used at a final concentration of 1.0 to 1.3 mg/ml (10 to 13 μM). […] These solutions are incubated at 240 for 1 hr and then applied to MicroSpin G-50 columns which are centrifuged for 2 min at 3000 rpm in an Eppendorf 5415C microfuge. An aliquot of each column effluent (containing tubulin and bound radioligand) is mixed with scintillation fluid and counted in a liquid scintillation spectrometer. […] Quadruplicates are averaged, and the ability of the competitor to inhibit the binding of the radioligand is expressed as a percentage of control binding in the absence of any competitor.

In the next experiment the test system is pure tubulin. The experiment is described as follows: Tubulin polymerization test procedure with pure tubulin. The format is biochemical, bovine. The following applies: pure tubulin without added GTP. On the procedure:
as §1
The procedure with pure tubulin is similar except for the following changes. […] The supernatant after centrifugation is dispensed to a ½-area 96-well plate already containing compounds. Each compound is tested in duplicate at a final concentration of 24.3 μM. The plate reader μs thermostated at 35°.

In experiment [2] the test system is polymerized tubulin (microtubules). The experiment can be described thus: Competitive binding test procedure, [3H]paclitaxel. On the set-up: species or system bovine. To be noted: competitor 20 μM, [3H]paclitaxel 2.1 μM. The protocol:
as §1, §2
For competition with [^3H]paclitaxel, highly purified tubulin is dissolved in PEM buffer containing 0.75 M glutamate and 25 μM dideoxy-GTP; final protein concentration is 0.25 to 0.35 mg/mL (2.5 to 3.5 μM). These conditions foster the rapid formation of short, stable microtubule polymers (Hamel, E., del Campo, A. A., and Lin, C. M. Stability of tubulin polymers formed with dideoxyguanosine nucleotides in the presence and absence of microtubule-associated proteins. J. Biol. Chem., 259: 2501-2508, 1984). […] The reactions are then centrifuged at top speed in an Eppendorf 5415C microfuge for 20 min at room temperature in order to pellet the microtubule protein. Triplicate aliquots of each supernatant are mixed with scintillation fluid and counted in a liquid scintillation spectrometer. From the amount of radioactivity in the supernatants and the measured total starting radioactivity, the amount of [^3H]paclitaxel bound to pelleted microtubule protein is calculated. The ability of each competitor to inhibit radioligand binding to pelleted protein is expressed as a percent of controls without any competitor.

Experiment [3] has as its system highly purified tubulin (tubulin heterodimer). The experiment is described as follows: Competitive binding test procedure, [3H]vinblastine. On the set-up: species or system bovine. The following applies: competitor 100 μM, [3H]vinblastine 100 nM. The protocol:
as §1, §2, §3

The subject of a further experiment is MAP-rich tubulin. The experiment can be described thus: Tubulin polymerization test procedure with MAP-rich tubulin. The format is biochemical, bovine. The following applies: MAP-rich tubulin with 1 mM GTP, compound 0.3 μM, at 20 min. On the procedure:
as §1
MAP-rich tubulin is dissolved in ice-cold PEM buffer containing 1 mM GTP (GPEM buffer) at a concentration of 1.3 mg/mL. The solution is centrifuged at top speed in an Eppendorf model 5415C microcentrifuge (Brinkmann Instruments, Westbury, N.Y.) for 10 min at 40 immediately before use. The tubulin solution is added to wells of a ½-area 96-well plate (Costar No. 3696, Corning, Inc., Corning, N.Y.) already containing the compounds of interest. Each compound is tested in duplicate at a final concentration of 0.3 μM in a volume of 110 μL per well. The final DMSO concentration in all wells is 0.3%. Control reactions, which receive compound solvent only, are done in quadruplicate. The plate is put in a SpectraMax Plus plate reader (Molecular Devices Corp. Sunnyvale, Calif.) thermostated at 240 and the absorbance of each well at 340 nm, a measure of the appearance of turbidity due to tubulin polymer formation, is determined every minute for 60 minutes. The absorbance at time 0 for each well is subtracted from each of the subsequent absorbance readings for that well, and then the duplicates are averaged.
In this assay, control reactions with MAP-rich tubulin show an S-shaped absorbance profile characterized by three phases: first, a lag phase during which no change in absorbance occurs; second, a polymerization phase in which absorbance increases; and third, a plateau phase in which absorbance has reached a maximum and little or no further change occurs. Polymerization enhancers such as paclitaxel and docetaxel shorten or eliminate the lag phase, increase the rate of the polymerization phase, and often increase the height of the plateau. […] This has been expressed quantitatively in Table 6 by dividing the mean A340 of each sample at 20 min by the mean A340 of the control at 20 min to give a fold enhancement over control. […]

Each structure is given as a SMILES string.

Take `CC[C@]1(O)C[C@H]2CN(CCc3c([nH]c4ccccc34)[C@@](C(=O)OC)(c3cc4c(cc3OC)N(C=O)[C@H]3[C@@](O)(C(=O)OC)[C@H](OC(C)=O)[C@]5(CC)C=CCN6CC[C@]43[C@@H]65)C2)C1` [Vincristine, reference compound]: in experiment [1], the “[3H]Colchicine binding, Mean, percent of binding to control without competitor” value was determined as 99%. The “polymerization of pure tubulin without GTP (in words)” value with pure tubulin is “no activity”. For the same compound, the “[3H]Paclitaxel binding, Mean, percent of binding to control without competitor” value in experiment [2] was 22%. In experiment [3], the “[3H]Vinblastine binding, Mean, percent of binding to control without competitor” value came out at 5%. In addition, the “A340 Compound / A340 Control (fold enhancement over control)” value in the experiment on MAP-rich tubulin was determined as 0.5.
